Results on 21 compounds are retold here after PubChem BioAssay (NCI).

Holding throughout (assay): NCI tumour cell line growth inhibition, 48 h
Assay [1] has as its system RXF-631 renal.
The test system of assay [2] is KM20L2 colon.
In assay [3] the test system is M19-MEL melanoma.
Assay [4] concerns HOP-18 NSCLC.
The subject of assay [5] is LXFL 529 NSCLC.
The subject of assay [6] is XF 498 CNS.
For assay [7], the system named is DLD-1 colon.
Assay [8] has as its system DMS 273 small cell lung.
Assay [9] has as its system MDA-N.
For assay [10], the system named is P388 leukemia.

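Tested at 5 concentrations; 48 h exposure; 96-well plates; endpoints linearly interpolated, else capped at highest concentration. Here, GI50 denotes the concentration required for 50% inhibition of growth. The concentration for full growth arrest is given as TGI.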

In the case of `[F][Sn]([F])([c]1ccccc1)[c]1ccccc1`, the GI50 in assay [1] was 2300 nM; in [2], 1870 nM; in assay [3], 2350 nM; in [4], 2080 nM; in assay [5], 815 nM; in assay [6], 1990 nM. The GI50 in assay [7] was 1880 nM; in assay [8] it was 2170 nM. The TGI worked out at 6.01 µM in assay [1]; 3.39 µM in assay [2]; 6.2 µM in [3]; 3.59 µM in assay [4]; 2.08 µM in [5]; 3.45 µM in [6]. Moreover, the TGI in [7] was determined as 3.47 µM; in assay [8], 5.26 µM.
With `Cc1cccc(C(C)C)c1NC(=O)C(=O)C(C(=O)c1ccccc1F)C1OC(=O)c2ccccc21` (stereo unspecified), the TGI in assay [1] worked out at 60.3 µM; in assay [2] it was 76.5 µM; in assay [3], 26.4 µM; in assay [4], 32.4 µM; in [5], 27.4 µM; in assay [6] it was 23.3 µM. The TGI was 30.8 µM in assay [7] and 44.3 µM in assay [8].
With `CCOC(=O)Cn1c(=O)n(C)c(=O)c2c1ncn2Cc1ccccc1`, the TGI in assay [2], in assay [3], in assay [5], in assay [6], in [7] and in assay [8] was above 100 µM in each case.
In the case of `COc1cc(C(=O)N2CCc3c([nH]c4c([N+](=O)[O-])c(OC)ccc34)C2C)cc(OC)c1OC` (stereo unspecified), the TGI in [1], in assay [2], in assay [5], in assay [7] and in [8] was above 100 µM in each case.
Consider `CC1=C(c2cc(C(=O)Nc3ccc(Cl)cc3)nc(=S)[nH]2)Sc2ccccc2N1`, for which the TGI in assay [1], in assay [2], in assay [3], in [4], in assay [5] and in assay [6] was above 100 µM throughout. For the same compound, the TGI in assay [7] and in [8] was above 100 µM in each case.
On to `C/C(CCn1[nH]c(=O)ccc1=O)=N\OCCCc1ccccc1`, for which the TGI in assay [2], in assay [3], in [4], in assay [5], in assay [6] and in assay [7] was above 100 µM each time. In assay [8], the TGI was above 100 µM.
As to `Cc1cc(C(C)(C)C)cc(Cc2cc(C(C)(C)C)cc(Cc3cc(C(C)(C)C)cc(C)c3O)c2O)c1O`, the TGI in [2] was 29.6 µM; in [3], 11.1 µM; in [4], 29 µM; in assay [5], 20.5 µM; in assay [6], 4.13 µM; in [7], 18.5 µM. This compound also registered a TGI in assay [8] of 22.8 µM.
Take `c1ccc(CSc2nc3ccccc3nc2-c2cccs2)cc1`: the TGI in assay [3], in assay [4], in assay [5], in [6], in [7] and in assay [8] was above 100 µM throughout.
Consider `CCN(CC)CCNC(=O)c1ccc(C)c(OCc2ccccc2)c1[N+](=O)[O-]`, for which the TGI in assay [2] is 64.5 µM; in assay [3], 32.7 µM; in [4], above 100 µM; in assay [5], 33.9 µM; in assay [6] it was 39.7 µM; in assay [9], 38.3 µM. The TGI was above 100 µM in assay [7] and 46.9 µM in [8].
Take `CCOc1ccccc1NC(=O)C(=O)Cc1nc2ccccc2s1`: the TGI in assay [1], in assay [2], in assay [3], in assay [4], in assay [5] and in assay [6] was above 100 µM throughout. Besides, the TGI in [7] and in [8] was above 100 µM each time.
With `CC1=C(C(=O)NNS(=O)(=O)c2ccc(C)cc2)CC(C(=O)NNS(=O)(=O)c2ccc(C)cc2)=C(C)N1`, the TGI in assay [1], in [2], in assay [3], in [4], in assay [5] and in [6] was above 100 µM in each case. Moreover, the TGI in [7] was above 100 µM.
For the compound `CC(C)(C)OC(=O)N1N=NC2C1C1CC(OCc3ccccc3)(OCc3ccccc3)C2O1` (stereo unspecified), the TGI in assay [1] was above 100 µM; in assay [2] it was above 100 µM; in [3], above 100 µM; in [4] it was above 100 µM; in [5] it was 35 µM; in [6] it was 30.3 µM. Moreover, the TGI in assay [7] and in [8] was above 100 µM in each case.
In the case of `COc1cc(C(=O)C/C(CCC(=O)Nc2ccc(Cl)cc2Cl)=N/NC(=O)C(=O)NN)ccc1O`, the TGI in assay [1], in [2], in assay [3], in [4], in assay [5] and in assay [6] was above 100 µM each time. Further, the TGI in assay [7] was above 100 µM.
With `O=C1C(=O)N(c2cc(Cl)ccc2Cl)C(=O)C(=O)C1c1nc2ccccc2o1`, the TGI in assay [1], in [2], in [3], in assay [4], in assay [5] and in [6] was above 100 µM in each case. Moreover, the TGI in assay [7] and in [8] was above 100 µM throughout.
For `CCOC(=O)/C(=C/c1cccc(C#N)c1)N(CC)CC`, the TGI in [1], in [3], in assay [4], in assay [5], in assay [6] and in assay [7] was above 100 µM each time.
Regarding `N#CC(C(=O)CCC(=O)Nc1cccc(C(F)(F)F)c1)c1ccc(Cl)cc1` (stereo unspecified), the TGI in assay [1], in assay [2], in [3], in [4], in [5] and in assay [6] was above 100 µM in each case. For the same compound, the TGI in [7] and in [8] was above 100 µM throughout.
On to `CC(=O)OC1C2CCC1C1C2C2(Cl)C(Cl)=C(Cl)C1(Cl)C2(Cl)Cl` (stereo unspecified), for which the TGI in assay [2] is 22.9 µM; in [3] it was 27.7 µM; in assay [4] it was 33.8 µM; in assay [5] it was 33.9 µM; in [6] it was 23.1 µM; in assay [7], 33.3 µM. This compound also showed a TGI in assay [8] of 25.4 µM.
Compound `O=c1[nH]c(=O)n([C@H]2CCCO2)cc1F` displayed a TGI in [10] of 565 µM. Further, in assay [9], the GI50 was 357 µM and the TGI was above 5000 µM.
Take `O=C(O)CN(c1ccccc1)S(=O)(=O)c1ccc([N+](=O)[O-])cc1`: the TGI in assay [1], in assay [2], in [3], in assay [4], in [5] and in assay [6] was above 100 µM each time. For the same compound, the TGI in assay [7] and in [8] was above 100 µM in each case.
As for `CC1CN1c1c(C(=O)/C=C/c2ccc(Cl)cc2)c(-c2ccccc2)nn(C)c1=O` (stereo unspecified), the TGI in assay [2] is above 10 µM; in [3] it was above 10 µM; in [4], above 10 µM; in assay [5], 5.13 µM; in assay [6], 5.5 µM; in [7] it was 3.45 µM. The same compound returned a TGI in assay [8] of 6.29 µM.
For `COC(=O)c1cccc2cccc(C(=O)Nc3ccc(Cl)cc3)c12`, the TGI in assay [1], in assay [2], in assay [3], in [4], in assay [5] and in assay [6] was above 100 µM in each case. Further, the TGI is above 62.5 µM in assay [7] and 22.2 µM in assay [8].
